Laboratory results reported in patent publication US20240390301A1, “COMBINATIONS OF PERIPHERAL 5-HT2A RECEPTOR ANTAGONISTS AND CENTRAL 5-HT2A RECEPTOR AGONISTS” (priority 2021, published 2024).
Read-outs that look alike come from different tables or passages of the source.

Legend:
[1] = target: T1, 5-HT2A receptor (Homo sapiens, UniProt P28223); test: 5-HT2A radioligand binding with [3H]ketanserin
T1 construct: WuXi AppTec (Hong Kong) Limited (contract laboratory that ran the assay)
Experimental: The binding affinities of key peripheral 5-HT2A receptor antagonists, as well as reference 5-HT2A agonists, at the ketanserin binding site of the 5-HT2A receptor and the mesulergine binding site of the 5-HT2C receptor were determined in radioligand binding experiments.
Method. Affinity of the test compounds for the 5-HT2A and 5-HT2C receptors was determined in radioligand binding experiments with [^3H] ketanserin and [^3H] mesulergine, respectively, by WuXi AppTec (Hong Kong) Limited, using methods adapted from the literature and under conditions described in Table 1.

[2] = target: T2, 5-HT2C receptor (Homo sapiens, UniProt P28335); test: biochemical; format: binding; details: HEK293 stable cell line, 2 nM [3H]mesulergine, 1 h, 25° C.; for Ki: read-out: 5-HT2C Ki (nM) ([3H]mesulergine)
T2 construct: WuXi AppTec (Hong Kong) Limited (contract laboratory that ran the assay)
T2 sequence (P28335 33-458): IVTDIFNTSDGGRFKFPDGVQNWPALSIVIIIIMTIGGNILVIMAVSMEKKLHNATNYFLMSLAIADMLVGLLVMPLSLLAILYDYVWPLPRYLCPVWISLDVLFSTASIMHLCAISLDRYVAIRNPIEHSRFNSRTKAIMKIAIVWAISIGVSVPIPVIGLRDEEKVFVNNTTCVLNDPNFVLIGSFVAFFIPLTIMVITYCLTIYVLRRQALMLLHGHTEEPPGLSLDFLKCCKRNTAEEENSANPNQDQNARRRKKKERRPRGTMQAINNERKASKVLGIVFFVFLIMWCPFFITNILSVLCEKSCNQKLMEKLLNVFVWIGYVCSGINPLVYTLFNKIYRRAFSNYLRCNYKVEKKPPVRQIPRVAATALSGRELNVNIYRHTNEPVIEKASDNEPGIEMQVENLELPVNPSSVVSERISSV

[3] = Metabolic stability in human liver microsomes; format: in vitro ADME; details: for half-life at 1 μM / microsomal CLint at 1 μM: both sexes, human, microsomes, pH 7.4
Experimental: HLM Stability. Pooled HLM from adult male and female donors (Corning 452117) were used. Microsomal incubations were carried out in multi-well plates. Liver microsomal incubation medium consisted of PBS (100 mM, pH 7.4), MgCl2 (1 mM), and NADPH (1 mM), with 0.50 mg of liver microsomal protein per mL. Control incubations were performed by replacing the NADPH-cofactor system with PBS. Test compounds (1 μM, final solvent concentration 1.0%) were incubated with microsomes at 37° C. with constant shaking. Six time points over 60 minutes were analyzed, with 60 μL aliquots of the reaction mixture being drawn at each time point. The reaction aliquots were stopped by adding 180 μL of cold (4° C.) acetonitrile containing 200 ng/mL tolbutamide and 200 ng/ml labetalol as internal standards (IS), followed by shaking for 10 minutes, and then protein sedimentation by centrifugation at 4,000 rpm for 20 minutes at 4° C. Supernatant samples (80 μL) were diluted with water (240 μL) and analyzed for parent compound remaining using a fit-for-purpose liquid chromatography-tandem mass spectrometry (LC-MS/MS) method.
Data Analysis. The elimination constant (kel), half-life (t1/2), and intrinsic clearance (CLint) were determined in a plot of […] versus time, using linear regression analysis.

[4] = HLM, 1 μM, 0.50 mg protein per mL, NADPH
[5] = HEK293 stable cell line, 1 nM [3H]ketanserin, 1 h, 25° C., read-out: 5-HT2A Ki (nM) ([3H]ketanserin)

T1 sequence (P28223 whole entry): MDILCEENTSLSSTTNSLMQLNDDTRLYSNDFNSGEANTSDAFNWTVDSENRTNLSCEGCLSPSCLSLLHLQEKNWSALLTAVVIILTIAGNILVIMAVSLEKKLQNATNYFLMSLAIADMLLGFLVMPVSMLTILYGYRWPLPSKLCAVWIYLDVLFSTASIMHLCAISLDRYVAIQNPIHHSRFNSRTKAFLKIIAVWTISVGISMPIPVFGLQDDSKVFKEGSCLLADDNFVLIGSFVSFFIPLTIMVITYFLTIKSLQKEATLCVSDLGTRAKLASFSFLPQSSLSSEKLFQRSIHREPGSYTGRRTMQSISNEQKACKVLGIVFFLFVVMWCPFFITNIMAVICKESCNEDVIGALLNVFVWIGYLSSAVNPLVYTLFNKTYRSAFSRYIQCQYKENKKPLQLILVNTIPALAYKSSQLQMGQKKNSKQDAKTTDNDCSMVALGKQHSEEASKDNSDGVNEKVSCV

| Structure (SMILES) | Ki [1] | 5-HT2C Ki (nM) ([3H]mesulergine) [2] | Ki [2] | Metabolic stability in HLM [3] | half-life at 1 μM [3, 4] | microsomal CLint at 1 μM [3, 4] | Ki [1, 5] | Clint [3, 4] | t1/2 [3, 4] |
| --- | --- | --- | --- | --- | --- | --- | --- | --- | --- |
| CC(CNC(=N)CNc1ccccc1)Oc1cccc(Cl)c1.O=CO (centres unmarked) [BW501C67, N-(2-(3-chlorophenoxy)propyl)-2-(phenylamino)acetimidamide formate] | 0.42 nM | high affinity | 1.34 nM | poor metabolic stability | 7.2 min | 192 µL/min/mg | – | – | – |
| CC(C)COc1ccc(CNC(=O)N(Cc2ccc(F)cc2)C2CCN(C(=O)CC[C@H](N)C(=O)O)CC2)cc1 [Compound 14a, (S)-2-amino-5-(4-(1-(4-fluorobenzyl)-3-(4-isobutoxybenzyl)ureido)piperidin-1-yl)-5-oxopentanoic acid] | – | – | 106 nM | highly stable | > 145 min | < 9.6 µL/min/mg | 3.83 nM | – | – |
| COc1cccc(OC(C)CNC(=N)Cc2cccc(C)c2)c1.O=C(O)C(F)(F)F (centres unmarked) [xylamidine, N-(2-(3-methoxyphenoxy)propyl)-2-(m-tolyl) acetimidamide trifluoroacetate] | – | high affinity | 1.45 nM | poor metabolic stability | – | – | 0.55 nM | 448.6 µL/min/mg | 3.1 min |
